Measured values from PubChem BioAssay (NCI).
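Tested at 5 concentrations; 48 h exposure; 96-well plates; endpoints linearly interpolated, else capped at highest concentration. GI50: concentration for 50% inhibition of growth. TGI: total growth inhibition.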

Key:
Assay in all cases: NCI anticancer screen, dose series, 48 h
[1] = tested on: NCI-H226 lung
[2] = tested on: HT29 colon
[3] = tested on: SN12C renal
[4] = tested on: NCI-H522 lung
[5] = tested on: MOLT-4 leukemia
[6] = tested on: ACHN renal
[7] = tested on: MDA-MB-435
[8] = tested on: COLO 205 colon
[9] = tested on: SK-MEL-28 melanoma
[10] = tested on: K-562 leukemia

Row | Structure (SMILES) | GI50 [1] | TGI [1] | GI50 [2] | TGI [2] | GI50 [3] | TGI [3] | GI50 [4] | TGI [4] | GI50 [5] | TGI [5] | GI50 [6] | TGI [6] | GI50 [7] | TGI [7] | GI50 [8] | TGI [8] | GI50 [9] | TGI [9] | GI50 [10] | TGI [10]
1 | O=C1/C(=C/c2ccc(Cl)cc2)N=C(c2ccccc2)N1CCc1cccs1 | 21.2 µM | > 100 µM | 20.3 µM | > 100 µM | 21.1 µM | > 100 µM | 15.3 µM | 74 µM | 16.5 µM | > 100 µM | 28.8 µM | > 100 µM | 28 µM | > 100 µM | 16 µM | 39.9 µM | 62.8 µM | > 100 µM | 22.9 µM | > 100 µM
2 | O=S(=O)(O)ON=C1c2ccccc2-c2ccccc21 |  | > 100 µM |  | > 100 µM |  | > 100 µM |  | > 100 µM |  | > 100 µM |  | > 100 µM |  | > 100 µM |  | > 100 µM |  | > 100 µM |  | > 100 µM
3 | NCCCNC1(c2cc3ccccc3s2)CCCCC1 |  | 33.3 µM |  | 10.9 µM |  | 22.8 µM |  | 9.13 µM |  | 15.7 µM |  | 24.4 µM |  | 4.48 µM |  | 3.45 µM |  | 4.59 µM |  | 5.38 µM
4 | CC1C2CC(C(S(=O)(=O)N3CCOCC3)/C2=N\O)C1(C)C (stereo not given) |  | > 100 µM |  | > 100 µM |  | > 100 µM |  | > 100 µM |  | > 100 µM |  | > 100 µM |  | > 100 µM |  | > 100 µM |  | > 100 µM |  | > 100 µM
5 | Cc1noc2nnn(-c3ccc(Cl)cc3)c(=O)c12 |  | 9.83 µM |  | 17.2 µM |  | 12.2 µM |  | 2.24 µM |  | 1.94 µM |  | 15.1 µM |  | 16.2 µM |  | 11.9 µM |  | 25.5 µM |  | 11.2 µM
